{"source": "patent US4878891A", "about": "“Method for eradicating infectious biological contaminants in body tissues” (Baylor Research Foundation, priority 1987, dated 1989)", "origin": "cited, not measured here", "key": {"[1]": {"system": "cutaneous T-cell lymphoma", "conditions": "oral; blood fraction exposed to ultraviolet A"}, "malignant tumors": {"system": "malignant tumors", "conditions": "patients given large doses; ultraviolet light"}, "tumor": {"system": "tumor", "conditions": "injected; several types of tumor induced in mice"}}, "data": [{"smiles": "Cc1cn([C@H]2C[C@H](N=[N+]=[N-])[C@@H](CO)O2)c(=O)[nH]c1=O", "note": "[3-deoxy-3'-azidothymidine (AZT), 3-deoxy-3'-azidothymidine]", "values": [{"measurement": "preventing the proliferation of tumor cells", "setting": "tumor cells", "value": "totally ineffective"}]}, {"smiles": "COc1c2occc2cc2ccc(=O)oc12", "note": "[8-methoxypsoralen]", "values": [{"measurement": "control of cutaneous T-cell lymphoma activity", "setting": "[1]", "value": "could be controlled"}]}, {"smiles": "CC[C@]1(O)C[C@H]2CN(CCc3c([nH]c4ccccc34)[C@@](C(=O)OC)(c3cc4c(cc3OC)N(C=O)[C@H]3[C@@](O)(C(=O)OC)[C@H](OC(C)=O)[C@]5(CC)C=CCN6CC[C@]43[C@@H]65)C2)C1", "note": "[Vincristine]", "values": [{"measurement": "treatment of viral diseases", "setting": "viral diseases", "value": "ineffective"}]}, {"smiles": "CC1=C(CCC(=O)O)c2cc3[nH]c(cc4nc(cc5[nH]c(cc1n2)c(C)c5C(C)O)C(C)=C4C(C)O)c(C)c3CCC(=O)O", "note": "(centres unmarked) [hematoporphyrin]", "values": [{"measurement": "red fluorescence in malignant tumors", "setting": "malignant tumors", "value": "red fluorescence"}, {"measurement": "localization in tumors", "setting": "tumor", "value": "localized and fluoresced in several types of tumor"}]}]}
